# Values of other authors in patent US20080280370A1, “METHODS AND COMPOSITIONS FOR DETECTING […] METABOLITES THEREOF” (priority 2007, published 2008).
# Assays:
# plants = details: metabolite formed by glyat acetylation; Castle et al. (2004)
# [1] = target: T1, EPSPS (enolpyruvylshikimate-3-phosphate synthase) enzyme (Arabidopsis thaliana, UniProt P05466); details: enzyme required for biosynthesis of aromatic amino acids in plants
# T1 sequence (P05466 77-520): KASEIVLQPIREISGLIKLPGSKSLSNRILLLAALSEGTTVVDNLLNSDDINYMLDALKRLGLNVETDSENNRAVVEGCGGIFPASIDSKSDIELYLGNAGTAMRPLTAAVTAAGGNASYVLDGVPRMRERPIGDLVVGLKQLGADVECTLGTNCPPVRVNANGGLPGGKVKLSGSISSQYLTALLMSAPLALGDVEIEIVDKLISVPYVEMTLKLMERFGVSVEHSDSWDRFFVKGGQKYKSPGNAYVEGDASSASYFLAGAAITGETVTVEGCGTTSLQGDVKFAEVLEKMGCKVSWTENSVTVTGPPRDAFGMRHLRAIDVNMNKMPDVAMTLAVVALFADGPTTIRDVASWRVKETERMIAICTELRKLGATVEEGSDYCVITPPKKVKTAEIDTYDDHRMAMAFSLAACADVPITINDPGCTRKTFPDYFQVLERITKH
Compound,Phytotoxicity (plants),Effect on EPSPS enzyme [1]
"CC(=O)N(CC(=O)O)CP(=O)(O)O [N-acetylglyphosate, N-Acetyl-N-(phosphonomethyl)glycine]",non-phytotoxic,
"O=C(O)CNCP(=O)(O)O [glyphosate, N-(phosphonomethyl)glycine]",,inhibits
